Where two headings read alike, the source gives them in different places.
Experiments:
[1] = system: TNF-α (TNF-alpha) production in Human Whole Blood; test: Inhibition of TNF-alpha production in Human Whole Blood (IGEN assay); format: cell-based
Procedure: This is an optional supplementary test, e.g. for potentially orally-administrable PDE4 inhibitors. Also, as the assay may measure the effect of PDE4 inhibitors after loss by protein binding, it might possibly also be relevant to externally-topically-administrable PDE4 inhibitors as protein-binding-loss of compound is possible during transport through the skin.
Test compounds are prepared as a ca. 10 mM stock solution in DMSO and a dilution series prepared in DMSO with 8 successive 3-fold dilutions, either directly from the 10 mM stock solution or from a more dilute solution in DMSO. The compound is added to assay plates using a Biomek Fx liquid handling robot.
Heparinised blood drawn from normal volunteers is dispensed (ca. 100 μl=ca. 100 ul) into microtitre plate wells containing ca. 0.5 or ca. 1.0 μl (ul, microlitres) of an appropriately diluted test compound solution. […] Plasma TNFα content is determined by electrochemiluminescence assay using the MSD technology (see below), the IGEN technology (see below) or by enzyme linked immunosorbant assay (ELISA) (see below).
Ca. […] 50 μl (ul) of streptavidin/biotinylated anti-TNF-α antibody mix, ca. 25 μl ruthenium tagged anti-TNF-α monoclonal and ca. 100 μl PBS containing 0.1% bovine serum albumin are added to each well and the plates are sealed and shaken for ca. 2 hours before being read on an IGEN instrument.

[2] = target: PDE5 (human recombinant) (Homo sapiens, UniProt O76074); test: PDE5 inhibition (FP or SPA general type of assay); format: biochemical; settings: in the particular assays used
Source text: Human recombinant PDE5 is disclosed in K. Loughney et al., “Isolation and characterisation of cDNAs encoding PDE5A, a human cGMP-binding, cGMP-specific 3′,5′-cyclic nucleotide phosphodiesterase”, Gene, 1998, 216, 139-147.
(§1) The ability of compounds to inhibit catalytic activity at PDE4B or 4D (human recombinant), PDE3 (from bovine aorta), PDE5 (human recombinant) or PDE6 (from bovine retina) can optionally be determined by Scintillation Proximity Assay (SPA) in a 96-well format.
(§2) Test compounds (as a solution in DMSO, suitably about 2 microlitre (ul) volume of DMSO solution) are preincubated at ambient temperature (room temperature, e.g. 19-23° C.) in Wallac Isoplates (code 1450-514) with PDE enzyme in 50 mM Tris-HCl buffer pH 7.5, 8.3 mM MgCl2, 1.7 mM EGTA, 0.05% (w/v) bovine serum albumin for 10-30 minutes (usually 30 minutes). […] Bound radioactive product is measured using a WALLAC TRILUX 1450 Microbeta scintillation counter. […] Curves are analysed using ActivityBase and XLfit (ID Business Solutions Limited, 2 Ocean Court, Surrey Research Park, Guildford, Surrey GU2 7QB, United Kingdom). Results are expressed as pIC50 values.
(§3) The compound of the invention (e.g. as prepared in Example 1) has also been tested for PDE3, PDE5 and PDE6 inhibition, e.g. using (independently for each PDE type) either a Fluorescence Polarisation (FP) general type of assay or using an SPA general type of assay.

[3] = system: PDE3 (from bovine aorta); test: PDE3 inhibition (FP or SPA general type of assay); format: biochemical; settings: in the particular assays used
Source text: PDE3 can be purified from bovine aorta as described by H. Coste and P. Grondin, “Characterisation of a novel potent and specific inhibitor of type V phosphodiesterase”, Biochem. Pharmacol., 1995, 50, 1577-1585.
as §1, §2, §3

IC50 ([1]; n = about 4, LPS-stimulated, read-out: Whole Blood, Mean pIC50 (IGEN assay) (converted)): ~2 nM
IC50 ([1]; range of individual measurements, read-out: Whole Blood individual pIC50 test values, range (IGEN assay) (converted)): 1.26 to 2.63 nM
Compound: CCc1nc2c(cnn2CC)c(NC2CCOCC2)c1CNC(=O)c1cc(C)no1 [Example 1, N-{[1,6-diethyl-4-(tetrahydro-2H-pyran-4-ylamino)-1H-pyrazolo[3,4-b]pyridin-5-yl]methyl}-3-methyl-5-isoxazolecarboxamide]
PDE4B pIC50 compared with PDE5 pIC50 (selectivity) [2]: inhibits PDE4B more strongly than it inhibits PDE3, PDE5 and PDE6
PDE4B pIC50 compared with PDE3 pIC50 (selectivity) [3]: inhibits PDE4B more strongly than it inhibits PDE3, PDE5 and PDE6

Reference: patent US20080255186A1, “Pyrazolo[3,4-B]Pyridine Compound, and Its Use as a Pde4 Inhibitor” (priority 2005, published 2008)
